≈ marks a conversion by molar mass, not a printed value. Where two headings read alike, the source gives them in different places.
Tests used:
[1] = tested on: rapid-growing mycobacteria (RGM) isolates; assay: MIC (CLSI broth dilution), all RGM isolates; format: cell-based, nontuberculous mycobacteria; conditions: all 50 RGM isolates
M. chelonae = assay: MIC (CLSI broth dilution), RGM isolates; format: cell-based; conditions: Mycobacteroides chelonae, read-out: MIC
M. immunogenum group = assay: MIC (CLSI broth dilution), RGM isolates; format: cell-based; conditions: M. immunogenum, read-out: MIC
M. mucogenium group = assay: MIC (CLSI broth dilution), RGM isolates; format: cell-based; conditions: read-out: MIC
M. fortuitum group = assay: MIC (CLSI broth dilution), RGM isolates; format: cell-based; conditions: Mycolicibacterium fortuitum, read-out: MIC
M. abscessus complex = assay: MIC (CLSI broth dilution), RGM isolates; format: cell-based; conditions: Mycobacteroides abscessus, read-out: MIC
M. smegmatis group = assay: MIC (CLSI broth dilution), RGM isolates; format: cell-based; conditions: Mycolicibacterium smegmatis, read-out: MIC

CO[C@@]1(NC(=O)Cc2cccs2)C(=O)N2C(C(=O)O)=C(COC(N)=O)CS[C@@H]21 [FOX, cefoxitin]
MIC50 ([1]; read-out: MIC50): 32 µg/mL (≈ 74.9 µM)
MIC90 ([1]; read-out: MIC90): > 64 µg/mL
MIC (M. chelonae; isolate 18, M. chelonae): > 64 µg/mL
MIC (M. chelonae; isolate 19, M. chelonae): > 64 µg/mL
MIC (M. chelonae; isolate 20, M. chelonae): > 64 µg/mL
MIC (M. chelonae; isolate 21, M. chelonae): > 64 µg/mL
MIC (M. chelonae; isolate 22, M. chelonae): > 64 µg/mL
MIC (M. immunogenum group; isolate 35, M. immunogenum group): > 64 µg/mL
MIC (M. immunogenum group; isolate 36, M. immunogenum group): > 64 µg/mL
MIC (M. immunogenum group; isolate 37, M. immunogenum group): > 64 µg/mL
MIC (M. immunogenum group; isolate 38, M. immunogenum group): > 64 µg/mL
MIC (M. mucogenium group; isolate 39, M. mucogenicum group, M. mucogenicum): ≤ 16 µg/mL
MIC (M. mucogenium group; isolate 40, M. mucogenicum group, M. mucogenicum): ≤ 16 µg/mL
MIC (M. mucogenium group; isolate 41, M. mucogenicum group, M. mucogenicum): ≤ 16 µg/mL
MIC (M. mucogenium group; isolate 42, M. mucogenicum group, M. mucogenicum): ≤ 16 µg/mL
MIC (M. mucogenium group; isolate 43, M. mucogenicum group, M. phocaicum): ≤ 16 µg/mL
MIC (M. mucogenium group; isolate 44, M. mucogenicum group, M. phocaicum): ≤ 16 µg/mL
MIC (M. mucogenium group; isolate 45, M. mucogenicum group, M. phocaicum): ≤ 16 µg/mL
MIC (M. mucogenium group; isolate 46, M. mucogenicum group, M. phocaicum): ≤ 16 µg/mL
MIC (M. mucogenium group; isolate 47, M. mucogenicum group, M. phocaicum): ≤ 16 µg/mL
MIC (M. mucogenium group; isolate 48, M. mucogenicum group, M. phocaicum): ≤ 16 µg/mL
MIC (M. fortuitum group; isolate 23, M. fortuitum group, M. fortuitum): 32 µg/mL (≈ 74.9 µM)
MIC (M. fortuitum group; isolate 24, M. fortuitum group, M. fortuitum): > 64 µg/mL
MIC (M. fortuitum group; isolate 25, M. fortuitum group, M. fortuitum): 32 µg/mL (≈ 74.9 µM)
MIC (M. fortuitum group; isolate 26, M. fortuitum group, M. porcinum): 32 µg/mL (≈ 74.9 µM)
MIC (M. fortuitum group; isolate 27, M. fortuitum group, M. porcinum): 32 µg/mL (≈ 74.9 µM)
MIC (M. fortuitum group; isolate 28, M. fortuitum group, M. porcinum/M. boenickei): 32 µg/mL (≈ 74.9 µM)
MIC (M. fortuitum group; isolate 29, M. fortuitum group, M. porcinum/M. boenickei): 32 µg/mL (≈ 74.9 µM)
MIC (M. fortuitum group; isolate 30, M. fortuitum group, M. porcinum/M. boenickei): ≤ 16 µg/mL
MIC (M. fortuitum group; isolate 31, M. fortuitum group, M. senegalense): 32 µg/mL (≈ 74.9 µM)
MIC (M. fortuitum group; isolate 32, M. fortuitum group, M. senegalense): 32 µg/mL (≈ 74.9 µM)
MIC (M. fortuitum group; isolate 33, M. fortuitum group, M. senegalense): < 16 µg/mL
MIC (M. fortuitum group; isolate 34, M. fortuitum group, M. senegalense): 32 µg/mL (≈ 74.9 µM)
MIC (M. abscessus complex; isolate 1, M. abscessus complex, erm gene type MAB30): 32 µg/mL (≈ 74.9 µM)
MIC (M. abscessus complex; isolate 2, M. abscessus complex, erm gene type MAB30): 32 µg/mL (≈ 74.9 µM)
MIC (M. abscessus complex; isolate 3, M. abscessus complex, erm gene type MAB30): 32 µg/mL (≈ 74.9 µM)
MIC (M. abscessus complex; isolate 4, M. abscessus complex, erm gene type massiliense): 32 µg/mL (≈ 74.9 µM)
MIC (M. abscessus complex; isolate 5, M. abscessus complex, erm gene type massiliense/subsp. abs hybrid): 32 µg/mL (≈ 74.9 µM)
MIC (M. abscessus complex; isolate 6, M. abscessus complex, erm gene type Type 1 abscessus): 32 µg/mL (≈ 74.9 µM)
MIC (M. abscessus complex; isolate 7, M. abscessus complex, erm gene type Type 1 abscessus): 32 µg/mL (≈ 74.9 µM)
MIC (M. abscessus complex; isolate 8, M. abscessus complex, erm gene type Type 1 abscessus): 32 µg/mL (≈ 74.9 µM)
MIC (M. abscessus complex; isolate 9, M. abscessus complex, erm gene type Type 1 abscessus): 32 µg/mL (≈ 74.9 µM)
MIC (M. abscessus complex; isolate 10, M. abscessus complex, erm gene type Type 1 abscessus): 32 µg/mL (≈ 74.9 µM)
MIC (M. abscessus complex; isolate 11, M. abscessus complex, erm gene type Type 6 abscessus): 32 µg/mL (≈ 74.9 µM)
MIC (M. abscessus complex; isolate 12, M. abscessus complex, erm gene type Type 6 abscessus): 32 µg/mL (≈ 74.9 µM)
MIC (M. abscessus complex; isolate 13, M. abscessus complex, erm gene type Type 6 abscessus): 32 µg/mL (≈ 74.9 µM)
MIC (M. abscessus complex; isolate 14, M. abscessus complex, erm gene type Type 6 abscessus): 64 µg/mL (≈ 150 µM)
MIC (M. abscessus complex; isolate 15, M. abscessus complex, erm gene type Type 7 abscessus): 32 µg/mL (≈ 74.9 µM)
MIC (M. abscessus complex; isolate 16, M. abscessus complex, erm gene type Type 7 abscessus): 32 µg/mL (≈ 74.9 µM)
MIC (M. abscessus complex; isolate 17, M. abscessus complex, erm gene type Type 8 abscessus): 32 µg/mL (≈ 74.9 µM)
MIC (M. smegmatis group; isolate 49, M. smegmatis group, M. goodii): > 64 µg/mL
MIC (M. smegmatis group; isolate 50, M. smegmatis group, M. wolinskyi): 64 µg/mL (≈ 150 µM)
